We go through three molecules from patent publication US20220265706A1, “PHARMACEUTICAL COMPOSITION CONTAINING COMPLEXES OF ALLOFERON AND ZINC” (priority 2019, published 2022).

One assay relates to Interleukin 18. Kind of assay: Interleukin 18 (IL-18) induction in mouse blood serum. Type of assay: in vivo. The settings on record: BALB/C mice, subcutaneous single dose 1 mg alloferon/kg; serum 36 hours after administration.
The test system of another assay is Interferon Gamma. Description: Interferon gamma (IFN-γ) induction in mouse blood serum, solid phase immunoassay. The settings on record: BALB/C mice, subcutaneous single dose 1 mg alloferon/kg; serum 3 hours after administration. Type of assay: in vivo.
The test system of assay [1] is Herpes Simplex Virus Type 2 (HSV-2) Strain G (ATCC VR-734). Kind of assay: Protective action in a model of herpetic infection in mice. The format is in vivo, White outbred mice. To be noted: HSV-2 vaginal infection, 1.25 mg/kg (Acyclovir 50 mg/kg); for N14, number of animal deaths in a group on the 14th day after infection: 20 mice per group; for N14, number of animal deaths in a group on the 14th day after infection / M, mortality rate: i.p. once a day for 3 days; for M, mortality rate / IP, index of protection: 14 days follow-up; for IP, index of protection: relative to control mortality 60.0%. As to the method:
The developed compositions were assessed for their protective action on the basis of a herpetic infection model. The following reference products were used: 1/Allokin-alfa, Lyophilisate for Solution for Subcutaneous Administration, a medicinal product used to treat genital herpes, containing 1 mg of alloferon per ampoule; 2/Acyclovir, a medicinal product used in the conventional herpes therapy.
White outbred mice (females) weighing 16 to 20 g were received from Rappolovo Nursery (Leningrad Oblast) and maintained on a standard diet under controlled vivarium conditions. The animals for the experimental groups were selected on a random basis. The animals were divided into 5 groups of 20 animals each: four experimental groups in which the animals received injections of Composition 1, Composition 2, Allokin-alfa, and Acyclovir, respectively, and one control group in which the animals received injections of 0.9% sodium chloride solution.
The study was made with the use of Herpes Simplex Virus Type 2 (HSV-2) Strain G (ATCC VR-734). The infection was introduced vaginally. Vaginal epithelium was injured with the use of a vaginal smearing scarifier, after which the animals were infected with the virus at a dose of 1.7×10^5TCID50 in the amount of 30 mcL.
Allokin-alfa and Compositions 1 and 2 were administered to the animals intraperitoneally at a dose of 1.25 mg/kg once a day for 3 days after the infection introduction. Acyclovir was administered in accordance with the same scheme at a dose of 50 mg/kg. The control group received injections of 0.9% sodium chloride solution.
The animals were followed up for 14 days. Mortality in the control and experimental groups were recorded on a daily basis. Based on the data so obtained, mortality rates M (the ratio of animal deaths over 14 days to the total number of infected animals in a group) and the index of protection IP (the ratio between the difference of the control and experimental groups' mortality rates and the control group lethality rate) were calculated.

Description for Interferon Gamma: Furthermore, cytokine induction caused by using both components (alloferon and the zinc salt), where administered to a body separately in time, were determined. Six samples were tested: • 1. Alloferon (Allokin-alfa, Lyophilisate for Solution for Subcutaneous Administration)—a reference product, • 2. Composition 1, • 3. Composition 2, • 4. […] 0.9% sodium chloride solution—control.
(§1) Samples 1, 2, 3, and 5 contained alloferon at the concentration of 1 mg/mL. The alloferon solution in Samples 1 and 5 was produced by dissolving the contents of an Allokin-alfa ampoule (1 mg of alloferon) in 1 mL of 0.9% sodium chloride solution. […] To determine the background content of IFN-γ and IL-18 in the subject animals' blood serum, a 0.9% sodium chloride solution was used.
(§2) The experiments enrolled BALB/C mice, females, weighing 16 to 22 grams, 18 weeks of age, divided into 6 groups of 15 individuals each. The samples were administered subcutaneously in a single dose of 1 mg of alloferon per 1 kg laboratory animal body weight. Sample 5 components were administered separately, one 15 minutes after the other.
Description for Interleukin 18: Six samples were tested: • 1. Alloferon (Allokin-alfa, Lyophilisate for Solution for Subcutaneous Administration)—a reference product, • 2. Composition 1, • 3. Composition 2, • 4. […] 0.9% sodium chloride solution—control.
as §1, §2
In case of the control group, the confidence interval was calculated based on measurements of the same sample dilutions. For the experimental groups, the confidence interval was calculated based on three samples from three animals for each measuring point.

Consider `CC(=O)[O-].CC(=O)[O-].[Zn+2]` [Zinc acetate], for which the “Interleukin 18, after 36 hours (mg/mL of blood serum)” value with Interleukin 18 is reported as 194 ± 12 mg/mL of blood serum. In the assay with Interferon Gamma, the “Interferon Gamma, after 3 hours (mg/mL of blood serum)” value was 82 ± 8 mg/mL of blood serum.

With alloferon, the “Interleukin 18, after 36 hours (mg/mL of blood serum)” value in the assay with Interleukin 18 was 360 ± 20 mg/mL of blood serum. Moreover, the “Interferon Gamma, after 3 hours (mg/mL of blood serum)” value with Interferon Gamma is recorded as 95 ± 16 mg/mL of blood serum. Further, in assay [1], the “N14, number of animal deaths in a group on the 14th day after infection” value came out at 4; the “M, mortality rate” value worked out at 20.0%; the “IP, index of protection” value was 66.7%.

For the molecule `Nc1nc2c(ncn2COCCO)c(=O)[nH]1` [Acyclovir], in assay [1], the “N14, number of animal deaths in a group on the 14th day after infection” value was determined as 3; the “M, mortality rate” value is 15.0%; the “IP, index of protection” value is 75.0%.
